Values of other authors in patent US9961900B2, “Herbicide formulations” (priority 2012, dated 2018).
Read-outs that look alike come from different tables or passages of the source. Each block holds one compound with its values, some of them ahead of it.

Experiments:
[1] = not given; remark: listed apart in the source
[2] = not given; remark: listed apart in the source

SMILES: C=CCO/N=C(\CCC)C1=C(O)CC(C)(C)C(C(=O)OC)C1=O (racemic) [aloxydim, methyl (1RS)-3-[(E)-1-(allyloxyimino)butyl]-4-hydroxy-6,6-dimethyl-2-oxocyclohex-3-enecarboxylate]
Aqueous photolysis DT50 (pH 7): Aqueous photolysis DT50 at pH 7: 0.22 days ^+

SMILES: CCS[C@H](C)C[C@H]1CC(=O)C(C(CC)=NOC/C=C/Cl)=C(O)C1 (racemic) [clethodim, (5RS)-2-{(1EZ)-1-[(2E)-3-chloroallyloxyimino]propyl}-5-[(2RS)-2-(ethylthio)propyl]-3-hydroxycyclohex-2-en-1-one]
Aqueous photolysis DT50 (pH 5, 25° C.): 1.6 days | Aqueous photolysis DT50 (pH 7, 25° C.): Aqueous photolysis DT50 at pH 7: 5.45 days (25° C.) | Aqueous photolysis DT50 (pH 9, 25° C.): 7.79 days

SMILES: CCCC(=NOCC)C1=C(O)C[C@@H]([C@H]2CCCSC2)CC1=O (racemic) [cycloxydim, (5RS)-2-[(EZ)-1-(ethoxyimino)butyl]-3-hydroxy-5-[(3RS)-thian-3-yl]cyclohex-2-en-1-one]
Aqueous photolysis DT50 (pH 7): Aqueous photolysis DT50 at pH 7: 0.05 days ^+

Solubility in cyclohexane [1]: > 40 g/kg | Solubility in ethanol [1]: > 50 mg/mL | Solubility in n-octanol [1]: > 50 mg/mL | Solubility in water [1]: Water: 0.8 mg/L
SMILES: CCOC(=O)C(C)Oc1ccc(Oc2nc3ccc(Cl)cc3s2)cc1 (racemic) [fenthiaprop-ethyl, ethyl (RS)-2-[4-(6-chloro-1,3-benzothiazol-2-yloxy)phenoxy]propionate]
Solubility in acetone [1]: In acetone, ethyl acetate, toluene, >500 g/kg; | Solubility in ethyl acetate [1]: In acetone, ethyl acetate, toluene, >500 g/kg; | Solubility in toluene [1]: In acetone, ethyl acetate, toluene, >500 g/kg;

SMILES: CC(Oc1ccc(Oc2ncc(C(F)(F)F)cc2Cl)cc1)C(=O)O (racemic) [haloxyfop, (RS)-2-{4-[3-chloro-5-(trifluoromethyl)-2-pyridyloxy]phenoxy}propionic acid]
Aqueous photolysis DT50 (pH 7): Aqueous photolysis DT50 at pH 7: 12 days | Aqueous hydrolysis (DT50) ([2]; 20° C. and pH 7): Stable

Stability in aqueous media ([2]; pH 3): Stable at pH 3-7 ^+
SMILES: CCOC(=O)C(C)Oc1ccc(Oc2cnc3cc(Cl)ccc3n2)cc1 (racemic) [quizalofop-ethyl, ethyl (2RS)-2-[4-(6-chloroquinoxalin-2-yloxy)phenoxy]propionate]

SMILES: CCCC(=NOCC)C1=C(O)C[C@@H](C[C@@H](C)SCC)CC1=O (racemic) [sethoxydim, (5RS)-2-[(EZ)-1-(ethoxyimino)butyl]-5-[(2RS)-2-(ethylthio)propyl]-3-hydroxycyclohex-2-en-1-one]
Aqueous photolysis DT50 (pH 7): Aqueous photolysis DT50 at pH 7: 0.02 days ^+

SMILES: COc1nc(C)nc(NC(=O)NS(=O)(=O)c2ccccc2Cl)n1 [chlorsulfuron]
Photolytic stability DT50 (pH 7): DT50: 18.8 d | Aqueous hydrolysis (DT50) ([2]; at pH 5): 1 days | Aqueous hydrolysis (DT50) ([2]; at pH 7): Stable

Aqueous photolysis DT50 (pH 7): Aqueous photolysis DT50 at pH 7: 24 days | Behaviour in alkaline media ([2]; alkaline media): hydrolyzes | Hydrolytic DT50 ([2]; pH 7, 25° C.): 4.8 days | Hydrolytic DT50 ([2]; pH 9, 25° C.): 0.07 days
SMILES: C#CCOC(=O)[C@@H](C)Oc1ccc(Oc2ncc(Cl)cc2F)cc1 [clodinafop-propargyl, prop-2-ynyl (R)-2-[4-(5-chloro-3-fluoro-2-pyridyloxy)phenoxy]propionate]

SMILES: Cc1ccn2nc(S(=O)(=O)Nc3c(F)cccc3F)nc2n1 [flumetsulam]
Photolytic stability DT50 (pH 7): DT50: 270 d

SMILES: C[C@@H](Oc1ccc(Oc2ncc(C(F)(F)F)cc2Cl)cc1)C(=O)O [haloxyfop-P, (R)-2-{4-[3-chloro-5-(trifluoromethyl)-2-pyridyloxy]phenoxy}propionic acid]
Aqueous photolysis DT50 (pH 7): Aqueous photolysis DT50 at pH 7: 12 days

SMILES: CC(C)=NOCCOC(=O)[C@@H](C)Oc1ccc(Oc2cnc3cc(Cl)ccc3n2)cc1 [propaquizafop, 2-isopropylideneaminooxyethyl (R)-2-[4-(6-chloroquinoxalin-2-yloxy)phenoxy]propionate]
Hydrolytic DT50 ([2]; pH 5, 25° C.): 10.5 days | Hydrolytic DT50 ([2]; pH 7, 25° C.): 32.0 days | Hydrolytic DT50 ([2]; pH 9, 25° C.): 0.538 days
